In US9353075B2, “Disubstituted beta-lactones as inhibitors of N-acylethanolamine acid amidase (NAAA)” (The Regents of the University of California, priority 2011, dated 2016):

Columns and labels:
Acid Ceramidase (AC) = Acid Ceramidase (AC) (Rattus norvegicus (Rat), UniProt Q6P7S1); test: Acid ceramidase inhibition, recombinant rat AC, LC-MS; type: biochemical; details: for IC50: read-out: r-AC IC50; for inhibition at 0.3 µM: read-out: r-AC % inhib. @ 0.3 μM; for inhibition at 10 µM: read-out: r-AC % inhib. @ 10 μM
Acid Ceramidase (AC), sequence (Q6P7S1 21-394): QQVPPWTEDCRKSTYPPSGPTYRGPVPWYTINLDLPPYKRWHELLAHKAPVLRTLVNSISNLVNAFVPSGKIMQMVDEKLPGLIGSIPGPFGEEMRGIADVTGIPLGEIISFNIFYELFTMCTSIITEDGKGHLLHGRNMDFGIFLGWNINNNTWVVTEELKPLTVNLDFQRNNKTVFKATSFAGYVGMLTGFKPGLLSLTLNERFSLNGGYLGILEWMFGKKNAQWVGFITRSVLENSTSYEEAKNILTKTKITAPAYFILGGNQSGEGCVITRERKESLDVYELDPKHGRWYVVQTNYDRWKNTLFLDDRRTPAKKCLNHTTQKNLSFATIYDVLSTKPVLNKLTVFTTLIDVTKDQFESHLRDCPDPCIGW
Procedure: The PCR (High Fidelity PCR Master, Roche) product was subcloned into a pEF6-[…] vector (Invitrogen) to construct a mammalian expression vector encoding […]-tagged rat AC. HEK293 cells were transfected with pEF6-rAC-[…] using Super-Fect reagent (Qiagen) and screened with G418 (0.3 mg/mL). Cells were suspended in 20 mM Tris HCl (pH 7.5) containing 0.32M sucrose, sonicated and centrifuged at 800×g for 15 minutes at 4° C. The supernatants were centrifuged again at 12,000×g for 30 minutes at 4° C. The pellets were suspended in phosphate-buffered saline (PBS) and subjected to 2 freeze-thaw cycles at -80° C. The suspensions were centrifuged at 105,000×g for 1 hour at 4° C. The supernatants containing recombinant AC were kept at -80° C. until use. Protein concentration was measured using the bicinchoninic acid (BCA) assay (Pierce). […] Reactions were stopped by addition of a mixture of chloroform/methanol (2:1, vol/vol) containing 1 nmol of heptadecanoic acid (HDA; NuChek Prep). […] HDA was eluted on an XDB Eclipse C18 column isocratically at 2.2 mL/min for 1 minute with a solvent mixture of 95% methanol and 5% water, both containing 0.25% acetic acid and 5 mM ammonium acetate. The column temperature was 50° C. Electrospray ionization (ESI) was in the negative mode, capillary voltage as 4 kV, and fragmentor voltage was 100 V. N2 was used as drying gas at a flow rate of 13 L/min and a temperature of 350° C. Nebulizer pressure was set at 60 psi. We monitored [M-H]- in the selected-ion monitoring (SIM) mode using HDA as internal standard. Calibration curves were generated using commercial lauric acid (Nu-Chek Prep; m/z=199).

r-NAAA = r-NAAA (Rattus norvegicus (Rat), UniProt Q5KTC7); test: r-NAAA inhibition, rat lung lysosomal NAAA preparation, UPLC/MS; type: biochemical
r-NAAA, sequence (Q5KTC7 34-362): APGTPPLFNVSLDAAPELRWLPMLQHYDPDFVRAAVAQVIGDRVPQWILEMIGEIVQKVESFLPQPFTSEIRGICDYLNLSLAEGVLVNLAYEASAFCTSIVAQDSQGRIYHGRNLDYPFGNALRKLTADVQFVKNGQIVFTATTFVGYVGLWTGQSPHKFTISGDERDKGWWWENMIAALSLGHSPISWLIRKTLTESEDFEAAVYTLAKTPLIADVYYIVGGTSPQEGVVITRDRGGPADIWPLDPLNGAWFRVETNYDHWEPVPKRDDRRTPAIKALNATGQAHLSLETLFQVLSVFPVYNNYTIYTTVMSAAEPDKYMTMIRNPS
Procedure: Lysosomal NAAA protein preparation were obtained by homogenizing male Sprague-Dawley rat lungs (Charles River) in 20 mM Tris-HCl buffer pH 7.4 containing 0.32M sucrose. Samples were centrifuged at 800×g for 15 minutes at 4° C. Supernatants were then centrifuged at 12,000 g for 30 minutes at 4° C. Pellets were then resuspended in PBS pH 7.4 and subjected to a freeze/thaw cycle at −80° C. The suspension was finally centrifuged at 105,000×g for 1 hour at 4° C. The supernatant was then used in the enzymatic assay.
NAAA protein preparation was pre-incubated with various concentrations of test compounds or vehicle control in 100 mM NaH2PO4/Citrate buffer, 1% Triton-X, 3 mM DTT (pH 4.5) for 30 minutes at 37° C. Samples were then incubated with heptadecenoylethanolamide (50 μM, Avanti Polar Lipids) at 37° C. for 30 min. The reaction was terminated by addition of cold methanol containing heptadecanoic acid (NuCheck Prep) as internal standard. Samples were then analyzed by UPLC/MS (Acquity, Waters). Heptadecenoic and heptadecanoic acids were eluted on an Acquity UPLC BEH C18 column (50 mm length, 2.1 mm i.d., 1.7 μm pore size, Waters) isocratically at 0.5 mL/min for 1.5 min with a solvent mixture of 95% methanol and 5% water, both containing 0.25% Acetic Acid and 5 mM Ammonium Acetate. The column temperature was 40° C. Electrospray ionization was in the negative mode, capillary voltage was 0.5 kV, cone voltage was […], desolvation temperature was 500° C. N2 was used as drying gas at a flow rate of 1000 L/hour and a temperature of 500° C. The [M−H]^− ion was monitored in the selected-ion monitoring mode (m/z values: heptadecenoic acid 267.37, heptadecanoic acid 269.37). Calibration curves were generated using commercial heptadecenoic acid (NuCheck Prep). Inhibition of NAAA activity was calculated as reduction of heptadecenoic acid in the samples compared to vehicle controls. IC50 values were calculated by non-linear regression analysis of log [concentration]/inhibition curves using GraphPad Prism 5 (GraphPad Software Inc., CA—USA) applying a standard slope curve fitting.

h-NAAA = h-NAAA (Homo sapiens (Human), UniProt Q02083); test: UPLC/MS h-NAAA assay; type: biochemical
h-NAAA, sequence (Q02083 29-359): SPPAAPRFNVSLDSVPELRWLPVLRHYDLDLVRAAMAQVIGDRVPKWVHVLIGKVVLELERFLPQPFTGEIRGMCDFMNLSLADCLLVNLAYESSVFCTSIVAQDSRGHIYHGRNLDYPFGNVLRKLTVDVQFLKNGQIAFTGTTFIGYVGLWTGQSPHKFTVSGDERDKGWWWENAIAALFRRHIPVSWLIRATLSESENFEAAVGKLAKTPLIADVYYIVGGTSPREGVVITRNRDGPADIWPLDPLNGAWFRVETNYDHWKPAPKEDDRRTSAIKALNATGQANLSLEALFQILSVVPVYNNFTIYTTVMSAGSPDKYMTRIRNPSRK
Procedure: NAAA protein preparation (10 μg) was pre-incubated with various concentrations of test compound or vehicle control in 100 mM NaH2PO4, 100 mM Tri Sodium Citrate Dehydrate, 0.1% Triton-X 100, 3 mM DTT, pH 4.5 for 30 min at 37° C. Duplicate samples were then incubated with 50 μM C17:1 10-cis-heptadecenoylethanolamide (Avanti Polar Lipids, Alabaster, Ala.—USA) at 37° C. for 30 minutes. The reaction was terminated by the addition of 0.2 mL of cold methanol containing 1 nmol of heptadecanoic acid (NuChek Prep, Elysian, Minn.—USA) as internal standard. Samples were then analyzed by UPLC/MS. Heptadecenoic and heptadecanoic acids were eluted on an Acquity UPLC BEH C18 column (50 mm length, 2.1 mm i.d., 1.7 μm pore size, Waters) isocratically at 0.5 mL/min for 1.5 min with a solvent mixture of 95% methanol and 5% water, both containing 0.25% Acetic Acid and 5 mM Ammonium Acetate. The column temperature was 40° C. Electrospray ionization was in the negative mode, capillary voltage was 2.7 kV, cone voltage was 45 V, extractor voltage was 3 V. The source temperature was 150° C. with a desolvation temperature of 400° C. N2 was used as drying gas at a cone flow of 100 L/hour and a desolvation flow of […]. The [M−H]-ion was monitored in the selected-ion monitoring mode (m/z values: heptadecenoic acid 267.37, heptadecanoic acid 269.37). Calibration curves were generated using commercial heptadecenoic acid (NuCheck Prep) Inhibition of NAAA activity was calculated as reduction of heptadecenoic acid in the samples compared to vehicle controls. IC50 values were calculated by non-linear regression analysis of log [concentration]/inhibition curves using GraphPad Prism 5 (GraphPad Software Inc., CA—USA) applying a standard slope curve fitting.

DNFB-induced dermatitis = test: DNFB contact dermatitis in mice, ear thickness; type: in vivo, mouse; details: mice, PEG 400 solution, each day for 7 days; (S)-OOPP 0.1-10% w/v, compound 6 0.1%
Procedure: 2,4-dinitrofluorobenzene (DNFB) (Sigma-Aldrich, Italy) was dissolved in acetone. On day 1 and 2, mice (CD1, 25-30 g, Charles River, Calco, Italy) were sensitized on the skin of the abdomen with hapten (20 μL of 0.5% DNFB). After 5 days, on day 7, mice were challenged with hapten (20 μL of 0.2% DNFB) in the earlobe and treated with drugs to be tested. Control group received the vehicle used to dissolve drugs. Mice (five per group) were placed in a plastic cage. On day 8, ear thickness was determined after challenge using a caliper. Results are expressed as absolute ear thickness.
Fresh drug suspensions of compound 6 were prepared immediately before use in a vehicle consisting of petrolatum plus 5% lauric acid and given in a volume of 20 μL/mouse. Mice were treated with different concentrations of compound 6 or vehicle together with DNFB challenge on […].
Compound 6 and the reported β-lactone NAAA inhibitor (S)-OOPP (Solorzano et al., Proceedings of the National Academy of Science USA 2009, 106, 20966-20971; Solorzano et al., Journal of Medicinal Chemistry 2010, 53, 5770-5781) were tested in this model for their contact sensitivity response. Fresh drug solutions of (S)-OOPP and compound 6 were prepared immediately before use in polyethylene glycol 400 (PEG 400) and given in a volume of 20 μL/ear. Mice were treated with different concentrations of (S)-OOPP, 0.1% compound 6 or vehicle each day for 7 days. Ear thickness was determined on day 0 and every day before challenge using a caliper. Results are expressed as absolute ear thickness.
The methods included the following. Dermatitis was produced in mice using 2-4 dinitrofluorobenzene (DNFB) as described by Buckley and Nijkamp (1994), Am J Respir Grit Care Med 149:400-7. Mice were sensitized on two consecutive days with a 0.5% DNFB solution applied to the shaved abdomen. At day 8, the ears were challenged with a 0.2% DNFB solution. Ear thickness was determined by using a micrometer. Scratching was evaluated as number of episodes per 60 minutes period. Data were analysed by ANOVA followed by the Bonferroni's test. See also Hargreaves K, et al (1988), Pain 32: 77-88 for related information.

Row | SMILES | IC50 (Acid Ceramidase (AC)) [nM] | IC50 (r-NAAA) [nM] | inhibition at 0.3 µM (Acid Ceramidase (AC)) [%] | IC50 (h-NAAA) [nM] | inhibition at 10 µM (Acid Ceramidase (AC)) [%] | Contact sensitivity response (ear swelling) (DNFB-induced dermatitis)
1 | O=C(N[C@@H]1COC1=O)OCCCCCc1ccccc1 [reference compound] | 30000 ± 2500 | 510 |  |  |  | 
2 | C[C@@H]1OC(=O)[C@@H]1NC(=O)OC(C)(C)CCCCc1ccccc1 [Example 25, (1,1-Dimethyl-5-phenyl-pentyl)-N-[(2S,3R)-2-methyl-4-oxo-oxetan-3-yl]-carbamate] |  | 310 | < 10 |  |  | 
3 | O=C(CCc1ccccc1)N[C@H]1COC1=O [(S)-OOPP, N-[(3S)-2-oxo-3-oxetanyl]-3-phenylpropanamide, reference compound] |  |  |  |  |  | did not inhibit contact sensitivity response
4 | C[C@@H]1OC(=O)[C@@H]1NC(=O)OC12CC3CC(CC(C3)C1)C2 [Example 12, Tricyclo[3.3.1.1^3,7]dec-1-yl [(2S,3R)-2-methyl-4-oxooxetan-3-yl]-carbamate] |  | 870 |  | 540 |  | 
5 | C[C@@H]1OC(=O)[C@H]1NC(=O)OCCCCCc1ccccc1 [Example 32, 5-Phenylpentyl-N-[(2S,3S)-2-methyl-4-oxo-oxetan-3-yl]-carbamate] | 3800 | 480 |  |  |  | 
6 | C[C@@H]1OC(=O)[C@@H]1NC(=O)OCCCOCc1ccccc1 [Example 18, 3-Benzyloxypropyl-N-[(2S,3R)-2-methyl-4-oxo-oxetan-3-yl]-carbamate] |  | 50 |  | 18 | < 10 | 
7 | O=C(N[C@H]1COC1=O)OCCCCCc1ccccc1 [drawing 83, reference compound] | 1530 | 6850 |  |  |  | 
8 | C[C@@H]1OC(=O)[C@@H]1NC(=O)OCCCCc1ccccc1 [Example 5, 4-phenylbutyl-[(2S,3R)-2-methyl-4-oxooxetan-3-yl]-carbamate] |  | 390 | < 10 |  |  | 

Further lines, with some results ahead:

Row | IC50 (Acid Ceramidase (AC)) [nM] | IC50 (r-NAAA) [nM] | inhibition at 0.3 µM (Acid Ceramidase (AC)) [%] | IC50 (h-NAAA) [nM] | inhibition at 10 µM (Acid Ceramidase (AC)) [%] | SMILES | Contact sensitivity response (ear swelling) (DNFB-induced dermatitis)
9 |  | 16 |  | 5 | 45 | CCCCCCC[C@H](C)OC(=O)N[C@H]1C(=O)O[C@H]1C [Example 7, [(1S)-1-methyloctyl]-N-[(2S,3R)-2-methyl-4-oxo-oxetan-3-yl]-carbamate] | 
10 |  | 16 |  | 5 | < 10 | C[C@@H]1OC(=O)[C@@H]1NC(=O)OCCCCCC1CCCCC1 [Example 35, 5-Cyclohexylpentyl-N-[(2S,3R)-2-methyl-4-oxo-oxetan-3-yl]-carbamate] | 
11 |  | 30 | < 10 |  |  | CCCCCCCCOC(=O)N[C@H]1C(=O)O[C@H]1C [Example 2, Octyl-[(2S,3R)-2-methyl-4-oxooxetan-3-yl]-carbamate] | 
12 |  | 7 |  | 7 | 30 | C[C@@H]1OC(=O)[C@@H]1NC(=O)OCc1ccc(-c2ccccc2)cc1 [Example 17, (4-phenylphenyl)methyl-N-[(2S,3R)-2-methyl-4-oxo-oxetan-3-yl]-carbamate] | 
13 |  | 30 | < 10 | 14 |  | CC(CCCCc1ccccc1)OC(=O)N[C@H]1C(=O)O[C@H]1C (mixture of isomers) [Example 22, [(1R) and (1S)-1-methyl-5-phenyl-pentyl]-N-[(2S,3R)-2-methyl-4-oxo-oxetan-3-yl]-carbamate] | 
